Like-named read-outs stand apart in the source and are kept apart here.
Legend:
[1] = unbuffered
[2] = Example 4 short term storage stability of 8 mg/mL furosemide Tris-buffered solutions; conditions: over 48 hours
Description: Upon preparation, samples were filtered through 0.2 μm nylon filters.
The osmolality values of 50 μL aliquots of each sample were measured by freezing point depression.
Aliquots of each sample were stored at each condition and subsequently filtered and analyzed after 24 and 48 hours of storage.

[3] = 8 mg/mL
[4] = Example 3 stability of 20 mg/mL furosemide Tris-buffered solutions, pH 6.7 to 8.5, ambient temperature; conditions: Tris buffer pH 6.7 to 8.5, ambient temperature, over 48 hours
Description: Samples were stored at ambient temperature and subsequently analyzed after 24 and 48 hours of storage.

[5] = Tris buffer pH 7.0, 7.5, 8.0, −20° C., 2° C.-8° C., 25° C., 40° C.
[6] = 25 mM Tris, nominal pH 7.0, 2-8° C., three months
[7] = 25 mM Tris, nominal pH 7.0, 25° C., three months
[8] = 25 mM Tris, nominal pH 7.0, 40° C., three months
[9] = 25 mM Tris, nominal pH 7.0, −20° C., three months
[10] = 25 mM Tris, nominal pH 7.4, 2-8° C., three months
[11] = 25 mM Tris, nominal pH 7.4, 25° C., three months
[12] = 25 mM Tris, nominal pH 7.4, 40° C., three months
[13] = 25 mM Tris, nominal pH 7.4, −20° C., three months
[14] = 25 mM Tris, nominal pH 8.0, 2-8° C., three months
[15] = 25 mM Tris, nominal pH 8.0, 25° C., three months
[16] = 25 mM Tris, nominal pH 8.0, 40° C., three months
[17] = 25 mM Tris, nominal pH 8.0, −20° C., three months
[18] = 50 mM Tris, nominal pH 7.0, 2-8° C., three months
[19] = 50 mM Tris, nominal pH 7.0, 25° C., three months
[20] = 50 mM Tris, nominal pH 7.0, 40° C., three months
[21] = 50 mM Tris, nominal pH 7.0, −20° C., three months
[22] = 50 mM Tris, nominal pH 7.4, 2-8° C., three months
[23] = 50 mM Tris, nominal pH 7.4, 25° C., three months
[24] = 50 mM Tris, nominal pH 7.4, 40° C., three months
[25] = 50 mM Tris, nominal pH 7.4, −20° C., three months
[26] = 50 mM Tris, nominal pH 8.0, 2-8° C., three months
[27] = 50 mM Tris, nominal pH 8.0, 25° C., three months
[28] = 50 mM Tris, nominal pH 8.0, 40° C., three months
[29] = 50 mM Tris, nominal pH 8.0, −20° C., three months
[30] = 100 mM Tris, nominal pH 7.0, 2-8° C., three months
[31] = 100 mM Tris, nominal pH 7.0, 25° C., three months
[32] = 100 mM Tris, nominal pH 7.0, 40° C., three months
[33] = 100 mM Tris, nominal pH 7.0, t0
[34] = 100 mM Tris, nominal pH 7.0, −20° C., three months
[35] = 100 mM Tris, nominal pH 7.4, 2-8° C., three months
[36] = 100 mM Tris, nominal pH 7.4, 25° C., three months
[37] = 100 mM Tris, nominal pH 7.4, 40° C., three months
[38] = 100 mM Tris, nominal pH 7.4, t0
[39] = 100 mM Tris, nominal pH 7.4, −20° C., three months
[40] = 100 mM Tris, nominal pH 8.0, 2-8° C., three months
[41] = 100 mM Tris, nominal pH 8.0, 25° C., three months
[42] = 100 mM Tris, nominal pH 8.0, 40° C., three months
[43] = 100 mM Tris, nominal pH 8.0, t0
[44] = 100 mM Tris, nominal pH 8.0, −20° C., three months
[45] = 25, 50, 100 mM Tris, pH 7.0, 7.4, 8.0, −20° C. to 40° C., three months

Q: What does the source list for `NS(=O)(=O)c1cc(C(=O)O)c(NCc2ccco2)cc1Cl` [Furosemide, 4-chloro-2-(furan-2-ylmethylamino)-5-sulfamoyl-benzoic acid]?
A: solution pH over time ([1]; 0.1 mg/mL and 8 mg/mL, adjusted to pH 8 to 9 with NaOH and HCl, monitored 72 hours): continually decrease; reproducibility of observed pH values ([1]; 8 mg/mL, pH 8.5, same equivalents of furosemide, acid and base): varied widely; change in furosemide concentration [2, 5]: No decrease; pH deviation from the initial value [2, 5]: ≤ 0.1 units; osmolality over time ([2]; Tris buffer): consistent; Osmolality [3, 6]: 297 mOsm/kg H2O; [Furosemide] [3, 6]: 8.01 mg/mL; pH [3, 6]: 7.08; Osmolality [3, 7]: 298 mOsm/kg H2O; [Furosemide] [3, 7]: 7.91 mg/mL; pH [3, 7]: 7.09; Osmolality [3, 8]: 296 mOsm/kg H2O; [Furosemide] [3, 8]: 7.89 mg/mL; pH [3, 8]: 7.08; Osmolality ([3]; 25 mM Tris, nominal pH 7.0, t0): 293 mOsm/kg H2O; [Furosemide] ([3]; 25 mM Tris, nominal pH 7.0, t0): 8.09 mg/mL; pH ([3]; 25 mM Tris, nominal pH 7.0, t0): 7.02; Osmolality [3, 9]: 296 mOsm/kg H2O; [Furosemide] [3, 9]: 7.91 mg/mL; pH [3, 9]: 7.07; Osmolality [3, 10]: 291 mOsm/kg H2O; [Furosemide] [3, 10]: 7.79 mg/mL; pH [3, 10]: 7.49; Osmolality [3, 11]: 289 mOsm/kg H2O; [Furosemide] [3, 11]: 7.81 mg/mL; pH [3, 11]: 7.47; Osmolality [3, 12]: 290 mOsm/kg H2O; [Furosemide] [3, 12]: 7.90 mg/mL; pH [3, 12]: 7.47; Osmolality ([3]; 25 mM Tris, nominal pH 7.4, t0): 287 mOsm/kg H2O; [Furosemide] ([3]; 25 mM Tris, nominal pH 7.4, t0): 8.00 mg/mL; pH ([3]; 25 mM Tris, nominal pH 7.4, t0): 7.42; Osmolality [3, 13]: 288 mOsm/kg H2O; [Furosemide] [3, 13]: 7.92 mg/mL; pH [3, 13]: 7.47; Osmolality [3, 14]: 292 mOsm/kg H2O; [Furosemide] [3, 14]: 7.97 mg/mL; pH [3, 14]: 8.07; Osmolality [3, 15]: 294 mOsm/kg H2O; [Furosemide] [3, 15]: 7.76 mg/mL; pH [3, 15]: 8.06; Osmolality [3, 16]: 294 mOsm/kg H2O; [Furosemide] [3, 16]: 7.99 mg/mL; pH [3, 16]: 8.07; Osmolality ([3]; 25 mM Tris, nominal pH 8.0, t0): 289 mOsm/kg H2O; [Furosemide] ([3]; 25 mM Tris, nominal pH 8.0, t0): 8.08 mg/mL; pH ([3]; 25 mM Tris, nominal pH 8.0, t0): 8.04; Osmolality [3, 17]: 291 mOsm/kg H2O; [Furosemide] [3, 17]: 7.91 mg/mL; pH [3, 17]: 8.06; Osmolality [3, 18]: 294 mOsm/kg H2O; [Furosemide] [3, 18]: 8.02 mg/mL; pH [3, 18]: 7.10; Osmolality [3, 19]: 290 mOsm/kg H2O; [Furosemide] [3, 19]: 8.07 mg/mL; pH [3, 19]: 7.10; Osmolality [3, 20]: 295 mOsm/kg H2O; [Furosemide] [3, 20]: 7.94 mg/mL; pH [3, 20]: 7.12; Osmolality ([3]; 50 mM Tris, nominal pH 7.0, t0): 290 mOsm/kg H2O; [Furosemide] ([3]; 50 mM Tris, nominal pH 7.0, t0): 8.06 mg/mL; pH ([3]; 50 mM Tris, nominal pH 7.0, t0): 7.04; Osmolality [3, 21]: 289 mOsm/kg H2O; [Furosemide] [3, 21]: 8.12 mg/mL; pH [3, 21]: 7.13; Osmolality [3, 22]: 293 mOsm/kg H2O; [Furosemide] [3, 22]: 8.10 mg/mL; pH [3, 22]: 7.50; Osmolality [3, 23]: 292 mOsm/kg H2O; [Furosemide] [3, 23]: 7.87 mg/mL; pH [3, 23]: 7.49; Osmolality [3, 24]: 296 mOsm/kg H2O; [Furosemide] [3, 24]: 7.97 mg/mL; pH [3, 24]: 7.50; Osmolality ([3]; 50 mM Tris, nominal pH 7.4, t0): 289 mOsm/kg H2O; [Furosemide] ([3]; 50 mM Tris, nominal pH 7.4, t0): 8.09 mg/mL; pH ([3]; 50 mM Tris, nominal pH 7.4, t0): 7.44; Osmolality [3, 25]: 292 mOsm/kg H2O; [Furosemide] [3, 25]: 7.93 mg/mL; pH [3, 25]: 7.52; Osmolality [3, 26]: 296 mOsm/kg H2O; [Furosemide] [3, 26]: 7.84 mg/mL; pH [3, 26]: 8.10; Osmolality [3, 27]: 296 mOsm/kg H2O; [Furosemide] [3, 27]: 7.82 mg/mL; pH [3, 27]: 8.09; Osmolality [3, 28]: 289 mOsm/kg H2O; [Furosemide] [3, 28]: 7.95 mg/mL; pH [3, 28]: 8.10; Osmolality ([3]; 50 mM Tris, nominal pH 8.0, t0): 288 mOsm/kg H2O; [Furosemide] ([3]; 50 mM Tris, nominal pH 8.0, t0): 8.14 mg/mL; pH ([3]; 50 mM Tris, nominal pH 8.0, t0): 8.04; Osmolality [3, 29]: 289 mOsm/kg H2O; [Furosemide] [3, 29]: 7.93 mg/mL; pH [3, 29]: 8.11; Osmolality [3, 30]: 296 mOsm/kg H2O; [Furosemide] [3, 30]: 7.89 mg/mL; pH [3, 30]: 7.00; Osmolality [3, 31]: 293 mOsm/kg H2O; [Furosemide] [3, 31]: 7.79 mg/mL; pH [3, 31]: 6.99; Osmolality [3, 32]: 294 mOsm/kg H2O; [Furosemide] [3, 32]: 7.87 mg/mL; pH [3, 32]: 6.98; Osmolality [3, 33]: 292 mOsm/kg H2O; [Furosemide] [3, 33]: 8.04 mg/mL; pH [3, 33]: 7.02; Osmolality [3, 34]: 298 mOsm/kg H2O; [Furosemide] [3, 34]: 7.90 mg/mL; pH [3, 34]: 7.00; Osmolality [3, 35]: 301 mOsm/kg H2O; [Furosemide] [3, 35]: 7.95 mg/mL; pH [3, 35]: 7.41; Osmolality [3, 36]: 295 mOsm/kg H2O; [Furosemide] [3, 36]: 7.82 mg/mL; pH [3, 36]: 7.41; Osmolality [3, 37]: 297 mOsm/kg H2O; [Furosemide] [3, 37]: 7.90 mg/mL; pH [3, 37]: 7.39; Osmolality [3, 38]: 297 mOsm/kg H2O; [Furosemide] [3, 38]: 8.17 mg/mL; pH [3, 38]: 7.42; Osmolality [3, 39]: 301 mOsm/kg H2O; [Furosemide] [3, 39]: 7.92 mg/mL; pH [3, 39]: 7.42; Osmolality [3, 40]: 295 mOsm/kg H2O; [Furosemide] [3, 40]: 7.91 mg/mL; pH [3, 40]: 7.99; Osmolality [3, 41]: 288 mOsm/kg H2O; [Furosemide] [3, 41]: 7.79 mg/mL; pH [3, 41]: 7.97; Osmolality [3, 42]: 294 mOsm/kg H2O; [Furosemide] [3, 42]: 7.79 mg/mL; pH [3, 42]: 7.98; Osmolality [3, 43]: 292 mOsm/kg H2O; [Furosemide] [3, 43]: 8.08 mg/mL; pH [3, 43]: 7.99; Osmolality [3, 44]: 296 mOsm/kg H2O; [Furosemide] [3, 44]: 7.89 mg/mL; pH [3, 44]: 7.99; change in furosemide concentration [3, 45]: no change; change in osmolality [3, 45]: no change; change in pH [3, 45]: no change; change in visual appearance [3, 45]: no change; change in furosemide concentration [4]: No decrease; pH deviation from the initial value [4]: ≤ 0.1 units

Reference: US12370168B2 (scPharmaceuticals Inc., priority 2013, dated 2025)
